Measurements from publication PMC8025302, “Structural and biophysical characterization of the tandem substrate-binding domains of the ABC importer GlnPQ” (Open Biology, 2021).
Values joined by “and” are separate entries in the source; they are usually repeats but may differ in a detail not shown here. Identical values can stand only once.

Key:
[1] = target: SBD1 within the tandem SBD1-2 (Lactococcus lactis, UniProt Q9CES5); assay: Isothermal titration calorimetry, SBD1 site of tandem SBD1-2; assay type: binding; details: SBD1 within tandem SBD1-2; ITC, 25°C, pH 6.0
Chain of SBD1 within the tandem SBD1-2 (Q9CES5 entry or part of it): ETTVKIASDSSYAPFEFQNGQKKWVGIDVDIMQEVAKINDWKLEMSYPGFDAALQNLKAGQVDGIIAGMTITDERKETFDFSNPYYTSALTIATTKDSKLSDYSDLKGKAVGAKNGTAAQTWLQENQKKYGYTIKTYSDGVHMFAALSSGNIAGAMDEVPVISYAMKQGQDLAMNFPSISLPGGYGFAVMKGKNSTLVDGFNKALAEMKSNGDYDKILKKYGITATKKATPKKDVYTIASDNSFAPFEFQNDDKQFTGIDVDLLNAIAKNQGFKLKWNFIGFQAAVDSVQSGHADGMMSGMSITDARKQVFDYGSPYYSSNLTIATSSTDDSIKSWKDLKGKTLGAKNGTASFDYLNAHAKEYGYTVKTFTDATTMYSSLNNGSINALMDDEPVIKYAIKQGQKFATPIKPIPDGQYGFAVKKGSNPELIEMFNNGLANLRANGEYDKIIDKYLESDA
Protocol: (§1) ITC experiments were performed as described previously. Briefly, the purified SBDs were dialysed overnight against 50 mM KPi (pH 6.0), 1 mM EDTA and 1 mM NaN3. Isothermal titration experiments were carried out using an ITC-200 (MicroCal, GE Healthcare, Buckinghamshire, UK). For these experiments, the substrate was prepared in the dialysis buffer to minimize mixing effects. All experiments were carried out at 25°C and a mixing rate of 1000 r.p.m. The concentration of SBD1 and SBD2 and associated tandem mutants varied between 20 and 100 µM during the experiment, depending on the expected KD of the protein under investigation. For titration experiments with asparagine typically the concentration of ligand in the syringe was 8–10× the concentration in the cell. […] The recorded data was approximated by a one- respectively two-site binding model and fitted using the nonlinear curve-fitting tool provided by ORIGIN 8 (Origin Lab Corp., Northhampton, MA) to describe the molar enthalpy change ΔH for protein–ligand complex formation, the stoichiometry n and the corresponding association constant KA. […] The molar entropy change ΔS was calculated from ΔG = ΔH − TΔS. […] For analysing the glutamine binding to SBD1-Δ5-SBD2, which features two binding sites, we first determined the parameters for the single site using the conditions of asparagine binding to SBD1. […]

[2] = system: tandem SBD1-2 wild-type protein; assay: Differential scanning calorimetry, thermostability of tandem with ligand; assay type: binding, Lactococcus lactis; details: DSC; unliganded 59°C
Protocol: Furthermore, we verified the stability of the proteins using differential scanning calorimetry (DSC) by analysing thermostability and potential differences in folding of wild-type SBD1-2 and linker mutants (figure 6b,c; electronic supplementary material, table S7). In the unliganded state, the melting temperature of both single SBDs was 59°C [41], which is the same for all tandem SBD1-2 mutants. The addition of either asparagine or glutamine increased the protein stability of the tandem resulting in a higher melting temperature of approximately 62°C for SBD1 and greater than or equal to 69°C for SBD2. […] We assign the peak shifts to a specific SBD by comparing the melting temperatures of the tandem SBD1-2 to that of the single SBDs. […] We find that linker deletions of 5 and 8 amino acids increase the stability of the proteins by 2–3°C. Maximal stabilization of SBD2 in SBD1-2 tandems is observed in the presence of glutamine, […] (figure 6c).
To determine the proteins thermal stability, DSC experiments were performed as described previously. Briefly, the purified SBDs were dialysed overnight against the DSC working buffer, i.e. 50 mM KPi (pH 7.0), 150 mM KCl, 1 mM EDTA and 1 mM NaN3. DSC experiments with working buffer solutions containing 4 µM of an SBD-mutant and 5 mM substrate were conducted on a VP-DSC Calorimeter (MicroCal, GE Healthcare, Buckinghamshire). The melting temperature Tm was determined by ORIGIN 8 (Origin Lab Corp, Northampton, MA).

[3] = target: SBD1 of GlnPQ (isolated domain); design: method as in PMID 23994008; details: ITC; cited from earlier work
[4] = target: SBD2 within the tandem SBD1-2 (Lactococcus lactis, UniProt Q9CES5); assay: Isothermal titration calorimetry, SBD2 site of tandem SBD1-2; assay type: binding; details: ITC
Chain of SBD2 within the tandem SBD1-2 (Q9CES5 entry or part of it): as above
Protocol: as §1

[5] = target: SBD2 of GlnPQ (isolated domain); design: method as in PMID 23994008; details: ITC; cited from earlier work

SMILES | Kd [1] | melting temperature of SBD1 in the tandem after addition of ligand [2] | melting temperature of SBD2 in the tandem after addition of ligand [2] | Kd [3] | Kd ([4]; SBD2 within tandem SBD1-2, SBD1 blocked with 1 mM asparagine) | Kd ([4]; SBD2 within tandem SBD1-2, no asparagine, 25°C, pH 6.0) | Kd [5]
NC(=O)C[C@H](N)C(=O)O [asparagine] | 400 ± 100 nM | approximately 62 °C | greater than or equal to 69 °C | 200 nM | – | – | –
NC(=O)CC[C@H](N)C(=O)O [glutamine] | 180000 nM and ~100000 nM | approximately 62 °C | greater than or equal to 69 °C | 90000 nM | 900 nM | 600 ± 200 nM | ~900 nM
